Results on 2 compounds are retold here after patent US11499185B2, “Nucleic acid sequencing methods and systems” (OMNIOME, INC., priority 2015, dated 2022).

In the experiment the target is T1, HIV reverse transcriptase (Human immunodeficiency virus type 1 group M subtype B, UniProt P04585).
T1 construct: Recombinant purified HIV reverse transcriptase (HIV RT); purchased Worthington Biochemical Corp (Lakewood, N.J.)
Nature of the experiment: Binding of HIV RT to biosensor coated with primer-template (Octet QK), with dNTP and NNRTI. Set-up: species or system HIV-1. As for the experimental part:
Template oligonucleotide Btn-4460-45095 and primer oligonucleotide 4496-4509AS were synthesized and analyzed (liquid chromatography-mass spectrometry (LC-MS) and electrospray ionization (ESI)) by Integrated DNA Technologies (Coralville, Iowa). Oligonucleotides were prepared in TE Buffer (10 mM Tris pH 8.0, 0.1 mM EDTA) to 100 μM. Primer and template oligonucleotides were combined (10 μM each strand) in a tube containing Annealing Buffer (10 mM Tris pH 8.0, 0.1 mM EDTA, 80 mM KCl). The tube containing primer-template solution was loaded onto a dry heat block (95° C. for 5 min), and the block was transferred to the bench top to anneal the strands by gradual cooling to ambient temperature. Uncompetitive NNRTI compounds (Pitta et al., J. Enzyme Inhib. Med. Chem. 28(10):113-22 (2013)), which is incorporated by reference herein in its entirety), were from Epigen Biosciences, Inc. (San Diego, Calif.). NNRTI compounds 7 (3-4-chloro-benzo[d]thiazol-2yl)-2-(2-chloro-6-fluorophenyl)thiazolidin-4-one) and 18 (3-(6-ethoxy-benzo[d]thiazol-2-yl)-2-(2-chloro-6-fluorophenyl)thiazolidin-4-one) were dissolved in dimethylsulfoxide (DMSO) to concentrations of 25.0 mM and 15.0 mM, respectively. Recombinant purified HIV reverse transcriptase (HIV RT) was from Worthington Biochemical Corp (Lakewood, N.J.). Ultra-pure bovine serum albumin (BSA) was from Ambion (Foster City, Calif.). All reagents and solutions were molecular biology grade.
Primer-template duplex was diluted ([…]) into Annealing Buffer. Immediately before use, HIV Reverse Transcriptase was pre-diluted into Enzyme Diluent (50 mM Tris, pH 8.0, 8 mM MgCl2). Binding buffer (50 mM Tris, pH 8.0, 160 mM KCl, 0.5 mM EDTA, 11 mM MgCl2, 0.3% (v/v) Triton X-100, 5.3 mM dithiothreitol (DTT), 100 μg/mL bovine serum albumin (BSA), 100 μM dNTP (dATP, dTTP, dGTP or dCTP), 100 nM HIV RT). NNRTI compounds were pre-diluted with DMSO immediately before being spiked into Binding Buffer. Reaction Buffer was Binding Buffer without NNRTI, dNTP or HIV RT enzyme. Buffer containing Primer-Template (PT), PT Wash Buffer, Binding buffer containing one dNTP, and Reaction Buffer were loaded (200 μL/well) into a Greiner 96-well black microplate (Sigma-Aldrich, St. Louis, Mo.; catalog number M9685). Streptavidin (SA) Biosensors (Pall ForteBio Corp., Menlo Park, Calif.; catalog number 18-5019) were re-hydrated in Annealing Buffer for approximately 10 minutes before use. The Octet QK biosensor system (Pall ForteBio Corp., Menlo Park, Calif.) was set for 30° C. operation and was programmed to coat the biosensors with Primer-Template and wash away unbound Primer-Template with PT Wash Buffer. Biosensors were transferred to Binding Buffer containing HIV RT+dCTP±NNRTI (association phase) followed by Reaction Buffer (dCTP incorporation and dissociation phase). Similarly, biosensors were transferred cyclically to solutions containing individual deoxyribonucleoside triphosphates (dATP, dGTP, dCTP or dTTP) as indicated. Cycles of binding and incorporation were repeated multiple times.
Data were imported into Microsoft Excel and Prism software (GraphPad Software, San Diego, Calif.) for display. The progress of binding and dissociation reactions was smoothed either by averaging within a 19.4-second window or by Prism software (19.4-second window and 6th-order smoothing polynomial).

Each structure is given as a SMILES string.

For the compound `O=C1CSC(c2c(F)cccc2Cl)N1c1nc2c(Cl)cccc2s1` (stereo not drawn) [NNRTI compound 7], the “binding to biosensor coated with primer-template in the association phase” value was “did not produce a binding peak” (HIV RT + incorrect nucleotides dCTP and dATP (cycles 7 and 8) + NNRTI 40 μM, FIG. 7A); “distinct peaks for binding” (HIV reverse transcriptase + correct dNTP + NNRTI 40 μM, ALK primer-template, FIG. 7A); “did not produce appreciable binding peaks” (control: HIV RT with 40 μM NNRTI, no dNTP, FIG. 7A).

Turning to `CCOc1ccc2nc(N3C(=O)CSC3c3c(F)cccc3Cl)sc2c1` (stereo not drawn) [NNRTI compound 18, 3-(6-ethoxy-benzo[d]thiazol-2-yl)-2-(2-chloro-6-fluorophenyl)thiazolidin-4-one], the “binding to biosensor coated with primer-template in the association phase” value is, setting by setting: (HIV RT + incorrect nucleotide dTTP (cycle 4) + NNRTI 80 μM, FIG. 8) “did not show a binding peak”; (HIV reverse transcriptase + correct dNTP + NNRTI 80 μM, ALK primer-template, FIG. 8) “distinct peaks for binding”; (control: HIV RT with 80 μM NNRTI, no dNTP, FIG. 8) “did not produce appreciable binding peaks”.
